Test results as given in publication PMC11015056 (ACS Infectious Diseases, 2024).

Key:
[1] = biological target: T1, ParC^S87N N. gonorrhoeae topoisomerase IV (Neisseria gonorrhoeae, UniProt P48374, S87N); experiment: Topoisomerase IV-catalyzed DNA decatenation, ParC S87N; type: biochemical
T1 sequence (P48374 1-768 S87N): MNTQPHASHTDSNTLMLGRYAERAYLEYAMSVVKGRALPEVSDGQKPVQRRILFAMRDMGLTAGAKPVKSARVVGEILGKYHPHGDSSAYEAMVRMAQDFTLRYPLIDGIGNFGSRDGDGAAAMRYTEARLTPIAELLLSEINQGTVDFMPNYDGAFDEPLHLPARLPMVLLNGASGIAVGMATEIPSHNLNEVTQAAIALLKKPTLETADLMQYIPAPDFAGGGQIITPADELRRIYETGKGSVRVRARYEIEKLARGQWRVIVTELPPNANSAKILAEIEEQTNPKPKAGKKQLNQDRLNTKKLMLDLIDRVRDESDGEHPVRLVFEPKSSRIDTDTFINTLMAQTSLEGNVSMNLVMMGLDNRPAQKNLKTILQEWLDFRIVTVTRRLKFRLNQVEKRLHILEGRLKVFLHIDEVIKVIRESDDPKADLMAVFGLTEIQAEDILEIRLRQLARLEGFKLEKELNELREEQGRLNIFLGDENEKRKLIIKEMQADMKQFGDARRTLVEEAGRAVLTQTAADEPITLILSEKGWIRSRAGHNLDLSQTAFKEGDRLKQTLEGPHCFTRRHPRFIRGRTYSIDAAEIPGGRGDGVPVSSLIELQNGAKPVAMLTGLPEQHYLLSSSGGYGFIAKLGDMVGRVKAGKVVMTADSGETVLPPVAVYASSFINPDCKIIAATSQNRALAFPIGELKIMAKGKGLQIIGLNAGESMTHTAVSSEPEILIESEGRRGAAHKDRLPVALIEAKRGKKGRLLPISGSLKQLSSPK

[2] = biological target: T2, ParC^E91G N. gonorrhoeae topoisomerase IV (Neisseria gonorrhoeae, UniProt P48374, E91G); experiment: Topoisomerase IV-catalyzed DNA decatenation, ParC E91G; type: biochemical
T2 sequence (P48374 1-768 E91G): T1 sequence (P48374 1-768 S87N)

[3] = biological target: T3, ParC^S87N/E91G N. gonorrhoeae topoisomerase IV (Neisseria gonorrhoeae, UniProt P48374, E91G/S87N); experiment: Topoisomerase IV-catalyzed DNA decatenation, ParC S87N/E91G; type: biochemical
T3 sequence (P48374 1-768 S87N/E91G): T1 sequence (P48374 1-768 S87N)

[4] = biological target: WT N. gonorrhoeae topoisomerase IV (Neisseria gonorrhoeae, UniProt P48374); experiment: Topoisomerase IV-catalyzed DNA decatenation, WT; type: biochemical
Protocol: DNA decatenation assays were based on previously published protocols by Anderson et al.[79] and Aldred et al.[30] Assays contained 10 nM WT, 20 nM ParC^S87N, 35 nM ParC^E91G, or 35 nM ParC^S87N/E91GN. gonorrhoeae topoisomerase IV, 5 nM kDNA, and 1 mM ATP in 20 μL of 40 mM HEPES-KOH (pH 7.6), 25 mM NaCl, 100 mM KGlu, and 10 mM Mg(OAc)2. Assay mixtures were incubated at 37 °C for 10 min with WT, 15 min with ParC^S87N, and 30 min with ParC^E91G and ParC^S87N/E91GN. gonorrhoeae topoisomerase IV, which represents the minimum time required to completely decatenate the kDNA in the absence of a drug. Reactions were stopped, subjected to electrophoresis, and visualized as described for gyrase-catalyzed DNA supercoiling.

[5] = biological target: T4, GyrA^S91F/D95G N. gonorrhoeae gyrase (Neisseria gonorrhoeae, UniProt P22118+P48371, D95G/S91F); experiment: Gyrase-catalyzed DNA supercoiling, GyrA S91F/D95G gyrase; type: biochemical; conditions: ± standard error of the mean, read-out: IC50, inhibition of DNA supercoiling
T4 construct: His-tag; purchased GenScript
T4 sequence (P48371 whole entry, looked up, stated change not applied): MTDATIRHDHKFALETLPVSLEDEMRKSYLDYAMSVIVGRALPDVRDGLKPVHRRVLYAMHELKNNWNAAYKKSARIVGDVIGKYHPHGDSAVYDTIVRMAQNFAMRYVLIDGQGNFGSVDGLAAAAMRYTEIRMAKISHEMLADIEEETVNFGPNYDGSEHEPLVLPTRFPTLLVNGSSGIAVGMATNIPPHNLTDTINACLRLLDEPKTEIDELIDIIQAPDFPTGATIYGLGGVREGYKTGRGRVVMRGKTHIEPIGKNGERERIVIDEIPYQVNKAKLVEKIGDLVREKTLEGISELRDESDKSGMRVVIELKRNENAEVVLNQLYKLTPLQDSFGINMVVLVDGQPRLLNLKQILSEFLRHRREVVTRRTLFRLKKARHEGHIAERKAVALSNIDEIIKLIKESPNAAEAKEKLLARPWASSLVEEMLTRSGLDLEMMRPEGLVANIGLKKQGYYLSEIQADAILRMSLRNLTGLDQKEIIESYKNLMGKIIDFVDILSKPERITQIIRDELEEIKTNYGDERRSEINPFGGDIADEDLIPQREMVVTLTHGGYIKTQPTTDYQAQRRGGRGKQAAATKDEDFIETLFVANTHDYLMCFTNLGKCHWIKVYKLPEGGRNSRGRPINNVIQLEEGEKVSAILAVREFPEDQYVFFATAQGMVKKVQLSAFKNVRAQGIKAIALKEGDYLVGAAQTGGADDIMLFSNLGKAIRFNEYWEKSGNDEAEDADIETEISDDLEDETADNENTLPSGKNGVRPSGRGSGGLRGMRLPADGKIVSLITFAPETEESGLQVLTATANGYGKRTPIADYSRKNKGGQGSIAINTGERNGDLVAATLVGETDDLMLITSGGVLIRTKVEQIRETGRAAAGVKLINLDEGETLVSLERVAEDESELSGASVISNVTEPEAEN
T4 sequence (P22118 whole entry, stated change not applied): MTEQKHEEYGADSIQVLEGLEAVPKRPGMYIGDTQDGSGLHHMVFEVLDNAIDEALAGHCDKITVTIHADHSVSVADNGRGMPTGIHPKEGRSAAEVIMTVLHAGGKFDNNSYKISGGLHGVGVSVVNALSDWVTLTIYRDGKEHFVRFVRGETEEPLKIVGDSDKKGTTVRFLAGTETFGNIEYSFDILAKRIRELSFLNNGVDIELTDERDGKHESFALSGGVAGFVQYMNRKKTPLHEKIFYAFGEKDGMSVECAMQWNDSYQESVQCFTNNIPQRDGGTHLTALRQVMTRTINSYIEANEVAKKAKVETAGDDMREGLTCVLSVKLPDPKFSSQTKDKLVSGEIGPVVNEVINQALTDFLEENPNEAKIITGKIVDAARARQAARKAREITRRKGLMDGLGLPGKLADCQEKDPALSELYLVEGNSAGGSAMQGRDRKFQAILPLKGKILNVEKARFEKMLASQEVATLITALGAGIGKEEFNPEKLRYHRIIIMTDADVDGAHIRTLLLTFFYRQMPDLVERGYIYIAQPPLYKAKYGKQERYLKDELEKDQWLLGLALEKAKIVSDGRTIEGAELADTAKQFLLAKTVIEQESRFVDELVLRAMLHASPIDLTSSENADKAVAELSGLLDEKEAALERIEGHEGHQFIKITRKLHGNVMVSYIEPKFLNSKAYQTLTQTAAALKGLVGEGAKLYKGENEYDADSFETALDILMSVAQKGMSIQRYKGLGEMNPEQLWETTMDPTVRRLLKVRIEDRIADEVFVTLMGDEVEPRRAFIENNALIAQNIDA

WT N. gonorrhoeae gyrase = WT N. gonorrhoeae gyrase (Neisseria gonorrhoeae, UniProt P22118+P48371); experiment: Gyrase-mediated DNA cleavage, WT gyrase; conditions: GyrA WT; induced by 8-methyl-2,4-quinazolinedione
WT N. gonorrhoeae gyrase, sequence (P48371 whole entry): as the sequence (P48371 whole entry, looked up, stated change not applied) above
WT N. gonorrhoeae gyrase, sequence (P22118 whole entry): as the sequence (P22118 whole entry, stated change not applied) above

SMILES | IC50 [1] [µM] | IC50 [2] [µM] | IC50 [3] [µM] | IC50 [4] [µM] | IC50 [5] [µM] | Max % DSB (WT N. gonorrhoeae gyrase) [%]
O=C(O)c1cn(C2CC2)c2cc(N3CCNCC3)c(F)cc2c1=O [Ciprofloxacin] | 16.4 | 301 ± 23.8 | > 500 | 13.7 |  | 
Cc1c(N2CC[C@@H](CN)C2)c(F)cc2c(=O)n(N)c(=O)n(C3CC3)c12 [8-Me-2,4-QD, 3-Amino-7-[(3S)-3-(aminomethyl)-1-pyrrolidinyl]-1-cyclopropyl-6-fluoro-8-methyl-2,4(1H,3H)-quinazolinedione] |  |  |  |  | 19.7 | 28.9
